Results published in ChEMBL document CHEMBL1201862, “PubChem BioAssay data set” (2004).
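Dose response: 5 concentrations. Exposure: 48 h. Format: 96-well plates. Endpoint: linear interpolation; highest concentration if not reached. GI50 marks 50% less growth.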 The source made the active and inactive calls. Cut-off read from the data, not from the text of the source: active = GI50 up to about 1.1 µM and inactive = higher.

Tests used:
Assay in all cases: NCI tumour cell line growth inhibition, 48 h
UACC-62 = system: UACC-62
LOX IMVI = system: LOX IMVI
MDA-MB-231 = system: MDA-MB-231
HL-60 = system: HL-60
COLO 205 = system: COLO 205
SK-MEL-5 = system: SK-MEL-5
NCI-H226 = system: NCI-H226
RPMI-8226 = system: RPMI-8226
OVCAR-4 = system: OVCAR-4
SN12C = system: SN12C
MDA-MB-435 = system: MDA-MB-435
U-251 = system: U-251
T47D = system: T47D
NCI/ADR-RES = system: NCI/ADR-RES
786-0 = system: 786-0
MDA-N = system: MDA-N
M14 = system: M14
CAKI-1 = system: CAKI-1
UO-31 = system: UO-31
MOLT-4 = system: MOLT-4

Measured: GI50

CCn1ncc(Oc2c(Cl)cc(N)cc2Cl)c(Cl)c1=O
inactive: UACC-62 39.5 µM | LOX IMVI 32.9 µM | MDA-MB-231 54.6 µM | HL-60 34.2 µM | COLO 205 22.7 µM | SK-MEL-5 24 µM | NCI-H226 40.3 µM | RPMI-8226 31.6 µM | OVCAR-4 54 µM | SN12C 79.3 µM | MDA-MB-435 29.1 µM | U-251 34.1 µM | T47D 50.2 µM | NCI/ADR-RES 31 µM | 786-0 41.5 µM | MDA-N 29.9 µM | M14 30.1 µM | CAKI-1 35.1 µM | UO-31 47.4 µM

O=C(Nc1nnc(-c2ccccc2)o1)C(SC(=S)N1CCCCC1)c1ccccc1 (stereo not drawn)
inactive: LOX IMVI 4.16 µM | MDA-MB-231 38.5 µM | HL-60 3.11 µM | COLO 205 31 µM | SK-MEL-5 13.6 µM | NCI-H226 25.4 µM | RPMI-8226 16.2 µM | OVCAR-4 30.5 µM | SN12C 10.9 µM | MDA-MB-435 21.3 µM | U-251 14.4 µM | T47D 31.2 µM | NCI/ADR-RES 3.93 µM | 786-0 16.7 µM | MDA-N 20.7 µM | M14 12.6 µM | CAKI-1 18.9 µM | UO-31 8.79 µM | MOLT-4 3.53 µM

CSC1=C(C(=O)Nc2ccccc2)C(N)=NC1=O
inactive: UACC-62 62.8 µM | LOX IMVI > 100 µM | MDA-MB-231 > 100 µM | HL-60 > 100 µM | COLO 205 > 100 µM | SK-MEL-5 > 100 µM | NCI-H226 > 100 µM | RPMI-8226 > 100 µM | OVCAR-4 > 100 µM | SN12C > 100 µM | MDA-MB-435 > 100 µM | U-251 > 100 µM | T47D 92.7 µM | NCI/ADR-RES > 100 µM | 786-0 > 100 µM | MDA-N > 100 µM | CAKI-1 27.5 µM | UO-31 17.1 µM | MOLT-4 > 100 µM

CNc1cccc2c1C(C)C[C@]1(C)C(=O)Nc3ccccc3[C@H]21 (stereo partly drawn)
inactive: UACC-62 37.7 µM | LOX IMVI 15.8 µM | MDA-MB-231 20.6 µM | HL-60 > 100 µM | COLO 205 29.8 µM | SK-MEL-5 43.8 µM | NCI-H226 24.9 µM | RPMI-8226 54.6 µM | OVCAR-4 18.1 µM | SN12C 21 µM | MDA-MB-435 23.5 µM | T47D 41.1 µM | NCI/ADR-RES 23.1 µM | 786-0 17.9 µM | MDA-N 26.6 µM | M14 20.2 µM | CAKI-1 26.5 µM | UO-31 23.1 µM | MOLT-4 32.8 µM

CC(=O)c1cccc(NC(=O)C(=O)C(c2cnc3ccc([N+](=O)[O-])cc3n2)[N+](=O)[O-])c1 (stereo not drawn)
inactive: UACC-62 > 100 µM | LOX IMVI > 100 µM | MDA-MB-231 > 100 µM | HL-60 37.9 µM | COLO 205 41 µM | NCI-H226 > 100 µM | RPMI-8226 > 100 µM | OVCAR-4 > 100 µM | SN12C > 100 µM | MDA-MB-435 > 100 µM | U-251 > 100 µM | T47D > 100 µM | NCI/ADR-RES 95.5 µM | 786-0 > 100 µM | MDA-N > 100 µM | M14 69 µM | CAKI-1 > 100 µM | UO-31 38.5 µM | MOLT-4 36.7 µM

O=C(Nc1nnc(-c2c(Cl)c(Cl)c(Cl)c(Cl)c2-c2nc3cc(C(=O)c4ccccc4)ccc3[nH]2)o1)c1ccc(Cl)cc1
inactive: LOX IMVI 34.8 µM | MDA-MB-231 48.6 µM | HL-60 20.3 µM | COLO 205 15.5 µM | SK-MEL-5 12.2 µM | NCI-H226 26.4 µM | RPMI-8226 81.7 µM | OVCAR-4 24.7 µM | SN12C 17.9 µM | MDA-MB-435 6.31 µM | U-251 32 µM | T47D 30.5 µM | NCI/ADR-RES 26.7 µM | 786-0 30.3 µM | MDA-N 5.89 µM | M14 35.5 µM | CAKI-1 40.7 µM | UO-31 41.7 µM | MOLT-4 13.6 µM

COC(=O)/C(=N\N)C(C(=O)C(=O)Nc1cc(Cl)ccc1Cl)c1nc2ccc([N+](=O)[O-])cc2nc1O (stereo not drawn)
inactive: UACC-62 > 100 µM | LOX IMVI > 100 µM | MDA-MB-231 > 100 µM | HL-60 > 100 µM | SK-MEL-5 > 100 µM | NCI-H226 > 100 µM | RPMI-8226 > 100 µM | OVCAR-4 > 100 µM | SN12C > 100 µM | MDA-MB-435 > 100 µM | U-251 > 100 µM | T47D > 100 µM | NCI/ADR-RES > 100 µM | 786-0 > 100 µM | MDA-N > 100 µM | M14 > 100 µM | CAKI-1 > 100 µM | UO-31 29.6 µM | MOLT-4 > 100 µM
